# Tests used:
# Serotonin-5-HT3 = Serotonin-5-HT3 (Rattus norvegicus, UniProt P35563); assay: In vitro receptor affinity, Serotonin-5-HT3; format: binding; settings: radioligand [3H]-GR 38032F, read-out: K1 (in vitro receptor affinity)
# Description: (§1) ln vitro affinity for neurotransmitter receptors: The binding data collected below were either obtained by CE REP (128, rue Danton, 92500 Rueil-Malmaison, France) or at Solvay Pharmaceuticals B.V. (C. J. van Houtenlaan 36, 1381 CP Weesp, The Netherlands), using well documented standard procedures. The affinities for dopamine-D2 and 5-HT1A receptors for instance, were measured as described by Creese (1997) and Gozlan (1983) respectively.
# [1] = Toxicological studies, plasma of rats; format: in vivo; settings: rats dosed with SLV313
# Text: (§2) Psychotropic pyridylmethyl -piperazine and -piperidine derivatives are disclosed in EP 0 908 458. […] By now it is very well known that N-oxides are metabolites of many tertiary amines, and in most cases are also intermediates between tertiary amines and their N-dealkylated analogs. Most, but not all, tertiary amine drugs give rise to N-oxides. For instance, this is the case with morphine, imipramine, promazine, cinnarizine and nicotine, to name just a few. How much N-oxidation takes place varies from trace amounts to a near quantitative conversion. […] The most famous example of these is chlordiazepoxide (Librium®), one of the most frequently used drugs in psychiatric and general medicine. […] Some N-oxides undergo nearly quantitative reductive conversion to the corresponding tertiary amines and in other cases the conversion is a mere trace reaction or even completely absent (Bickel, 1969). Thus, the formation of N-oxides and their corresponding tertiary amines is unpredictable. […] When they are, the reaction can be a mere trace or nearly quantitative.
# Serotonin-5-HT2A = Serotonin-5-HT2A (Homo sapiens, UniProt P28223); assay: In vitro receptor affinity, Serotonin-5-HT2A; format: binding; settings: radioligand [3H]-ketanserin, read-out: K1 (in vitro receptor affinity)
# Sequence of Serotonin-5-HT2A (P28223 whole entry): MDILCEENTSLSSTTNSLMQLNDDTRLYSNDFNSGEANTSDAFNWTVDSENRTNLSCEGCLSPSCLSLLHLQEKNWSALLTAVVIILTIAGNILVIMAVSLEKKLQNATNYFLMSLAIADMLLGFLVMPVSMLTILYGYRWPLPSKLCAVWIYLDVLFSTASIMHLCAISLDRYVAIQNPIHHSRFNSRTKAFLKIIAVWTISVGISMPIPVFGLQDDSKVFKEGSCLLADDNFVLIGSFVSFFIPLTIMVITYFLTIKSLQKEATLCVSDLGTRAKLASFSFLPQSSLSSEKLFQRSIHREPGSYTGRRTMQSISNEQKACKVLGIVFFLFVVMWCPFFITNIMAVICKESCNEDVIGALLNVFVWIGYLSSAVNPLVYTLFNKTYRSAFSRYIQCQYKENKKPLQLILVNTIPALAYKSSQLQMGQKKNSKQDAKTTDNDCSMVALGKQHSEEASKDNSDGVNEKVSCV
# Description: as §1
# Muscarine-M5 = Muscarine-M5 (Homo sapiens, UniProt P08912); assay: In vitro receptor affinity, Muscarine-M5; format: binding; settings: radioligand [3H]-4-DAMP, read-out: K1 (in vitro receptor affinity)
# Sequence of Muscarine-M5 (P08912 whole entry): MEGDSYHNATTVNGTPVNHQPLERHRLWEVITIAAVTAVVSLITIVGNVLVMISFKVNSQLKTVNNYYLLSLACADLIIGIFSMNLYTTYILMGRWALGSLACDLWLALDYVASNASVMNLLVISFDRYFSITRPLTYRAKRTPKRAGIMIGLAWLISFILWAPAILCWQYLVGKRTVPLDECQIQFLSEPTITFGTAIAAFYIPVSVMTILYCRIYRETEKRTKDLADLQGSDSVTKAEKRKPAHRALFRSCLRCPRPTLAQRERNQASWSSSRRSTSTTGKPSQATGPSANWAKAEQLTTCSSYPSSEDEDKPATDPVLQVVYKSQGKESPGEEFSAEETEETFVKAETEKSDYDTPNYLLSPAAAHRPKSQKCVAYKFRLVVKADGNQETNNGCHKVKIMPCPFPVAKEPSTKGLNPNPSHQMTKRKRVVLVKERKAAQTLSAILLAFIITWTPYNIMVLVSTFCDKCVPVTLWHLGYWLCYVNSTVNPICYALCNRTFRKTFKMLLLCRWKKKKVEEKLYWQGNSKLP
# Description: as §1
# Serotonin-5-HT6 = Serotonin-5-HT6 (Homo sapiens, UniProt P50406); assay: In vitro receptor affinity, Serotonin-5-HT6; format: binding; settings: radioligand [3H]-LSD, read-out: K1 (in vitro receptor affinity)
# Sequence of Serotonin-5-HT6 (P50406 whole entry): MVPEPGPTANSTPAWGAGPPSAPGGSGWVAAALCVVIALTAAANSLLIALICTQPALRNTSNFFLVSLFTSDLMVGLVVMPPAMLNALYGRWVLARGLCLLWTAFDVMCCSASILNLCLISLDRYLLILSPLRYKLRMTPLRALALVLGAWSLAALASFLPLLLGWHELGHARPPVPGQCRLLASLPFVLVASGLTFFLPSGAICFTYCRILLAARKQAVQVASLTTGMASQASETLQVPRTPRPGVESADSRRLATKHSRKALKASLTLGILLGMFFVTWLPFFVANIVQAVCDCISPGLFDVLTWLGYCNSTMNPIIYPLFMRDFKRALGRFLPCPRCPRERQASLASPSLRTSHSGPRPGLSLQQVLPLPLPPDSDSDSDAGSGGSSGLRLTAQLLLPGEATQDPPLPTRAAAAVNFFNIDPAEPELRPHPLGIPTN
# Description: as §1
# Dopamine-D4 = Dopamine-D4 (Homo sapiens, UniProt P21917); assay: In vitro receptor affinity, Dopamine-D4; format: binding; settings: radioligand [3H]-spiperone, read-out: K1 (in vitro receptor affinity)
# Sequence of Dopamine-D4 (P21917 whole entry): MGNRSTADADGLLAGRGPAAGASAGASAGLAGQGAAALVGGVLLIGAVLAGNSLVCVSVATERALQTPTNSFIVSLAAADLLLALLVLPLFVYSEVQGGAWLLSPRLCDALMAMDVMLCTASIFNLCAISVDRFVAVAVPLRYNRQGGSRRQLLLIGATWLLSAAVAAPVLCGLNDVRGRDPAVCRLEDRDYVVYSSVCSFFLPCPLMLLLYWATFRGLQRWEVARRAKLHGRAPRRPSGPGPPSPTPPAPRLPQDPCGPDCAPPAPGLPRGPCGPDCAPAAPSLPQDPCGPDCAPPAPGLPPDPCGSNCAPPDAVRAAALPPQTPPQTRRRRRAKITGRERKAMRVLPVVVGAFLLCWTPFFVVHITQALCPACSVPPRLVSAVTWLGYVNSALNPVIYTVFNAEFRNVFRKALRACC
# Description: as §1
# Serotonin-5-HT1D = assay: In vitro receptor affinity, Serotonin-5-HT1D; format: binding; settings: bovine, radioligand [3H]-serotonin; read-out: K1 (in vitro receptor affinity)
# Description: as §1
# [2] = Plasma concentrations in mice after i.v. or p.o. administration, blood analyzed by LC-MS; format: in vivo; settings: i.v. or p.o.
# Description: The LC-MS system consists of 2 Perkin elmer series 200 micro pumps. The pumps were connected to each other by a 50 pI tee mixer, and connected to a Gilson 215 auto sampler. The method was as follows:
# The auto sampler was connected to a Waters Atlantis C18 30*4.6 mm column with 3 μm particles. The column was thermo stated in a Perkin Elmer series 200 column oven at 40° C. The column was connected to a Perkin Elmer series 200 UV meter with a 2.7 μl flowcel. The wavelength was set to 254 nm. The UV meter was connected to a Sciex API 150EX mass spectrometer. The mass spectrometer had the following parameters: Scanrange:150-900 a.m.u., polarity: positive; scan mode: profile; resolution Q1: UNIT; step size: 0.10 a.m.u.; time per scan: 0.500 sec; NEB: 10; CUR: 10; IS: 5200; TEM: 325; DF: 30; FP: 225 and EP: 10. The light scattering detector was connected to the Sciex API 150. The light scattering detector was a Sedere Sedex 55 operating at 50° C. and 3 bar N2. The complete system was controlled by a G3 powermac.
# For oral (p.o.) administration: to the desired quantity (0.5-5 mg) of the solid test compound in a glass tube, some glass beads were added and the solid was milled by vortexing for 2 minutes. After addition of 1 ml of a solution of 1% methylcellulose in water and 2% (v/v) of Poloxamer 188 (Lutrol F68), the compound was suspended by vortexing for 10 minutes. The pH was adjusted to 7. […]
# [3] = Partition coefficient, experimental (Log P); format: physicochemical; settings: at pH 7.0
# [4] = Metabolism studies in humans; format: in vivo; settings: in man (also not in any animal species used in toxicology studies)
# Text: as §2
# [5] = Toxicological studies, plasma of dogs; format: in vivo; settings: dogs dosed with SLV313
# Text: as §2
# Dopamine-D3 = Dopamine-D3 (Homo sapiens, UniProt P35462); assay: In vitro receptor affinity, Dopamine-D3; format: binding; settings: radioligand [3H]-spiperone, read-out: K1 (in vitro receptor affinity)
# Sequence of Dopamine-D3 (P35462 whole entry): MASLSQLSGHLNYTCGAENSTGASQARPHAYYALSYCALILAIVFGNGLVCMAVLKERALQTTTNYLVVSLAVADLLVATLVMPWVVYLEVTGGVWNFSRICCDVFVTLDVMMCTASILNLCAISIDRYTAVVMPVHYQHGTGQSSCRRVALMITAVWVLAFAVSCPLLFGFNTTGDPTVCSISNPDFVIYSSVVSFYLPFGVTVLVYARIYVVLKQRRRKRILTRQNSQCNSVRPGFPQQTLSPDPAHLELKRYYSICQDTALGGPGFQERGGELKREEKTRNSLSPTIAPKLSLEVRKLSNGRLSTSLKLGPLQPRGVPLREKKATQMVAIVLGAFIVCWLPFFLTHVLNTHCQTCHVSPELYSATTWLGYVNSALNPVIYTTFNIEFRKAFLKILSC
# Description: as §1
# Dopamine-D2 = Dopamine-D2 (Homo sapiens, UniProt P14416); assay: In vitro receptor affinity, Dopamine-D2; format: binding; settings: radioligand [3H]-spiperone, read-out: K1 (in vitro receptor affinity)
# Sequence of Dopamine-D2 (P14416 whole entry): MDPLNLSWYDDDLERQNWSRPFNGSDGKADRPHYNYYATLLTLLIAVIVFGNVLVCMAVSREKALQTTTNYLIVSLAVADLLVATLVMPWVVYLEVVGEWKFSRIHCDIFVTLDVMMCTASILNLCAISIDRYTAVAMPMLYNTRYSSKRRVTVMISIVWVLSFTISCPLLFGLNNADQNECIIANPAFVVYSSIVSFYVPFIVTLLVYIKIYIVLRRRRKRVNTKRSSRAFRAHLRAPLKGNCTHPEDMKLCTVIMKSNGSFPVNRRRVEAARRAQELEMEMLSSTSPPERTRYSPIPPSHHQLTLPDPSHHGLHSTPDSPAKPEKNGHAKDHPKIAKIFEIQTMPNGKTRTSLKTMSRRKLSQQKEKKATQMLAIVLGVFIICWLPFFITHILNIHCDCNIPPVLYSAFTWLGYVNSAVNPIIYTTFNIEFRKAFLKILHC
# Description: as §1
# [6] = test system: neurotransmitter receptors; assay: Pharmacological profile in vitro (overall statement)
# Description: as §1
# In vitro (ant)agonistic activity at human D2 receptors and 5-HT1A receptors was measured according to the methods described by Solomon (1974) and Weiss (1985) respectively, on the formation of adenylate cyclase in CHO cell-lines expressing these cloned receptors.
# [7] = Pharmacological profile in vivo (overall statement); settings: in vivo
# Description: Lower lip retraction, an in vivo animal model for serotonin 5-HT1A receptor agonistic activity, was measured according to the method described by Berendsen (1989); Apomorphine-induced climbing behaviour in mice, an in vivo animal model for dopamine-D2 receptor antagonistic activity, was determined according to the method described by Costall (1978).
# Sequence of Serotonin-5-HT3 (P35563 24-483): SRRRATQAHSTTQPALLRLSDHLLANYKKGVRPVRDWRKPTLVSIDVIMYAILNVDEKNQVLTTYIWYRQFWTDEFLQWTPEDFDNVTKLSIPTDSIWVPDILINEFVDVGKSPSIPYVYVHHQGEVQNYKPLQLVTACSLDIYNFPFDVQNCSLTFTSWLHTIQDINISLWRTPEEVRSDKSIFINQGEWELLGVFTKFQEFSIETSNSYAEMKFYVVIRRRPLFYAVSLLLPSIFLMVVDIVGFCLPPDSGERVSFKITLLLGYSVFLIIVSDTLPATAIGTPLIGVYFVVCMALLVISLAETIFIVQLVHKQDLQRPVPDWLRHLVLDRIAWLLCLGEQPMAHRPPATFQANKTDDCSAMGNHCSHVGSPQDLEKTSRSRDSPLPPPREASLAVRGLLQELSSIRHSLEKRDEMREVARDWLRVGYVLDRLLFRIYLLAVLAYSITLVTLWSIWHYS
Structure (SMILES),Ki (Serotonin-5-HT3) [nM],pyridine-N-oxide in plasma [1],Ki (Serotonin-5-HT2A) [nM],Ki (Muscarine-M5) [nM],Ki (Serotonin-5-HT6) [nM],Ki (Dopamine-D4) [nM],Ki (Serotonin-5-HT1D) [nM],metabolism to piperazine-N-oxide [2],logP [3],piperazine-N-oxide as a metabolite [4],pyridine-N-oxide in plasma [5],Ki (Dopamine-D3) [nM],Ki (Dopamine-D2) [nM],melting point [°C],pharmacological profile/activity in vitro relative to parent SLV313 [6],pharmacological profile/potency in vivo relative to SLV313 [7]
"Fc1ccc(-c2cncc(CN3CCN(c4cccc5c4OCCO5)CC3)c2)cc1 [SLV313, 3-[[4-(2,3-dihydro-1,4-benzodioxin-5-yl)-1-piperazinyl]methyl]-5-(4-fluorophenyl)pyridine, reference compound]",> 1000,could not be demonstrated,250,> 1000,> 1000,10,13000,not metabolized to its piperazine-N-oxide,3.6,has not been detected as a metabolite,could not be demonstrated,,,,,
"[O-][n+]1cc(CN2CCN(c3cccc4c3OCCO4)CC2)cc(-c2ccc(F)cc2)c1 [pyridine N-oxide, 1-(2,3-dihydro-1,4-benzodioxin-5-yl)-4-[[5-(4-fluorophenyl)-1-oxido-3-pyridinyl]methyl]-piperazine]",> 10000,,500,> 10000,> 10000,20,4000,,2.6,,,8,5,171,identical,identical

# Reference: patent US20070275977A1, “N-OXIDES OF PYRIDYLMETHYL -PIPERAZINE AND -PIPERIDINE DERIVATIVES” (priority 2006, published 2007)
